Experimental findings from ChEMBL document CHEMBL1201862, “PubChem BioAssay data set” (2004) are described below.

Several values for one entry are separate records, joined by “and”; a condition that tells them apart may be missing. Identical values can stand only once.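 Interpolation was linear, between the two tested concentrations surrounding the appropriate level; five concentrations were tested over 48 hours in 96-well plates. Here, GI50 denotes the concentration required for 50% inhibition of growth.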 Activity calls are given as the source filed them. Cut-off read from the data, not from the text of the source: active = GI50 up to about 1.1 µM and inactive = higher. Bounds are passed on as bounds.

Among the test systems are SK-OV-3; MCF7; OVCAR-5; HCT-15; U-251; MDA-MB-435; Malme-3M; UO-31; SF-268; K562; ACHN; BT-549; LOX IMVI; KM12; HT-29; OVCAR-4; TK-10; HOP-62; RXF 393; HCC 2998.
Test in all cases: NCI anticancer screen, dose series, 48 h

As for `O=C1CC(n2cccc2)c2cc(Br)sc21` (centres undefined), the GI50 in the test on SK-OV-3 is > 100 µM (inactive); in the test on MCF7, 69.5 µM (inactive); in the test with OVCAR-5 it was > 100 µM (inactive); in the test on HCT-15, > 100 µM; with U-251 it was > 100 µM (inactive); in the test with MDA-MB-435, 87.5 µM (inactive). The GI50 in the test on Malme-3M, in the test with UO-31, in the test on SF-268, in the test with K562, in the test on ACHN and in the test on BT-549 was > 100 µM (inactive) each time. Further, the GI50 in the test on LOX IMVI is 31.9 µM (inactive); in the test on KM12, > 100 µM (inactive); in the test with HT-29, > 100 µM (inactive); in the test with OVCAR-4, > 100 µM (inactive); in the test on TK-10, > 100 µM (inactive); in the test on HOP-62 it was > 100 µM (inactive).
`C=C1CC2CC(=O)C(O)C(C1)C2` (centres undefined): the GI50 is > 100 µM (inactive) with SK-OV-3; > 100 µM (inactive) with MCF7; > 100 µM (inactive) with OVCAR-5; > 100 µM in the test on HCT-15; > 100 µM (inactive) with MDA-MB-435; > 100 µM (inactive) with UO-31. Moreover, the GI50 in the test on SF-268, with K562, in the test on ACHN, in the test on RXF 393, in the test with LOX IMVI and in the test on HCC 2998 was > 100 µM (inactive) throughout. In addition, the GI50 in the test on KM12, in the test on HT-29, in the test on TK-10 and in the test on HOP-62 was > 100 µM (inactive) in each case.
As for `COP1(=S)OCC2CCC[C@@H]2O1` (some centres undefined), the GI50 in the test with OVCAR-5 is > 100 µM (inactive); in the test with HCT-15, > 100 µM; with U-251 it was > 100 µM (inactive); in the test on MDA-MB-435, > 100 µM (inactive); in the test on Malme-3M, > 100 µM (inactive); with UO-31, > 100 µM (inactive). Moreover, the GI50 in the test with SF-268, with K562, in the test on ACHN, in the test with RXF 393, in the test with BT-549 and with HCC 2998 was > 100 µM (inactive) throughout. Further, the GI50 in the test on KM12, with HT-29, in the test on OVCAR-4 and with TK-10 was > 100 µM (inactive) each time.
Take `COc1ccc(N[S+]([O-])c2ccccc2OC)cc1` (centres undefined): the GI50 is 20.2 µM (inactive) in the test with MCF7; 46.5 µM (inactive) in the test on OVCAR-5; 5.16 µM with HCT-15; 12.5 µM (inactive) in the test on U-251; 7.53 µM (inactive) with MDA-MB-435; 19.6 µM (inactive) with Malme-3M. Further, the GI50 in the test on UO-31 is 12.3 µM (inactive); in the test with SF-268, 7.28 µM (inactive); in the test on K562, 8.28 µM (inactive); with ACHN, 20.4 µM (inactive); with LOX IMVI it was 10.3 µM (inactive); with HCC 2998, > 10 µM (inactive). Besides, the GI50 is 4.98 µM (inactive) in the test on KM12; 18.1 µM (inactive) with HT-29; 53.7 µM (inactive) in the test on OVCAR-4; > 100 µM (inactive) with TK-10; 37.2 µM (inactive) in the test on HOP-62.
`CC1=COC(C)(C=C(C#N)C#N)CC1` (centres undefined): the GI50 in the test with SK-OV-3 is > 100 µM (inactive); with MCF7, 36.6 µM (inactive); with OVCAR-5, > 100 µM (inactive); in the test with HCT-15, > 10 µM; with U-251 it was > 100 µM (inactive); in the test with MDA-MB-435, 32.4 µM (inactive). The GI50 was > 100 µM (inactive) with Malme-3M; > 100 µM (inactive) in the test with UO-31; > 100 µM (inactive) in the test on SF-268; 30.5 µM (inactive) in the test with K562; > 100 µM (inactive) in the test on ACHN; > 100 µM (inactive) with RXF 393. Besides, the GI50 with HCC 2998 is > 100 µM (inactive); with KM12, 34.8 µM (inactive); with HT-29, > 100 µM (inactive); with OVCAR-4 it was > 100 µM (inactive); with TK-10, > 100 µM (inactive); with HOP-62, > 100 µM (inactive).
As for `CCOP(=O)(OCC)C(C)(CC)NC(=O)C(C(F)(F)F)C(F)(F)F` (centres undefined), the GI50 in the test on SK-OV-3 is > 100 µM (inactive); with MCF7, > 31.6 µM (inactive) and 29.7 µM (inactive); in the test on OVCAR-5, > 100 µM (inactive); in the test with HCT-15, > 100 µM; in the test on U-251 it was > 100 µM (inactive); with MDA-MB-435 it was > 100 µM (inactive) and > 87.7 µM (inactive). The GI50 with Malme-3M was > 100 µM (inactive); in the test on UO-31, > 100 µM (inactive) and 97.3 µM (inactive); with SF-268 it was > 100 µM (inactive); with ACHN it was > 100 µM (inactive); in the test on RXF 393, > 100 µM (inactive); in the test with LOX IMVI, > 88.3 µM (inactive) and 72.3 µM (inactive). Besides, the GI50 in the test with HCC 2998 was > 100 µM (inactive); with KM12, 49.5 µM (inactive) and 58.2 µM (inactive); with HT-29 it was > 100 µM (inactive); with OVCAR-4, > 100 µM (inactive); in the test with TK-10 it was 75.9 µM (inactive); in the test with HOP-62 it was > 100 µM (inactive).
`Nc1ccc(S(=O)(=O)NCCS(=O)(=O)O)cc1`: the GI50 with OVCAR-5 was > 100 µM (inactive); in the test on HCT-15 it was > 100 µM; with U-251 it was > 100 µM (inactive); in the test with MDA-MB-435 it was > 100 µM (inactive); with Malme-3M, > 100 µM (inactive); in the test with UO-31, > 100 µM (inactive). The GI50 in the test on SF-268, with K562, in the test with ACHN, in the test on RXF 393, in the test on BT-549 and in the test on LOX IMVI was > 100 µM (inactive) throughout. Also, the GI50 in the test with KM12, in the test on HT-29, in the test with OVCAR-4, with TK-10 and in the test with HOP-62 was > 100 µM (inactive) throughout.
Take `CNC(=O)OC1/C(C)=C\C(C)C(O)C(OC)CC(C)CC2=C(OC)C(=O)C=C(C2=O)N(C)C(=O)/C(C)=C/C=C\C1OC` (centres undefined): the GI50 in the test with SK-OV-3 was 10.2 µM (inactive); with OVCAR-5 it was 13.1 µM (inactive); in the test on HCT-15 it was 6.76 µM; in the test with U-251 it was 15.2 µM (inactive); in the test with Malme-3M, 5.69 µM (inactive); in the test on UO-31 it was 7.69 µM (inactive). Further, the GI50 in the test on SF-268 was 9.73 µM (inactive); with K562 it was 0.578 µM (active); with ACHN, 8.24 µM (inactive); with RXF 393 it was 2.25 µM (inactive); with BT-549, 5 µM (inactive); with LOX IMVI it was 4.68 µM (inactive). In addition, the GI50 in the test on HCC 2998 is 4.39 µM (inactive); with KM12, 10.4 µM (inactive); in the test on HT-29, 1.19 µM (inactive); with OVCAR-4 it was 9.23 µM (inactive); in the test with TK-10, 7.64 µM (inactive); in the test on HOP-62, 14.4 µM (inactive).
Consider `COc1cc(-c2c3c(cc4c2OCO4)[C@@H](Nc2ccc(-c4ccc(-c5ccc(N[C@@H]6c7cc8c(cc7C(c7cc(OC)c(O)c(OC)c7)[C@H]7C(=O)OC[C@H]67)OCO8)cc5)cc4)cc2)[C@H]2COC(=O)[C@@H]2C3)cc(OC)c1O` (some centres undefined), for which the GI50 is 2.65 µM (inactive) in the test with SK-OV-3; 2.82 µM (inactive) in the test with MCF7; 4.39 µM (inactive) in the test on OVCAR-5; 1.73 µM in the test on HCT-15; 3.09 µM (inactive) with U-251; 1.69 µM (inactive) in the test with MDA-MB-435. Further, the GI50 in the test with Malme-3M is 1.87 µM (inactive); with UO-31 it was 3.13 µM (inactive); in the test with SF-268, 2.33 µM (inactive); with ACHN, 2.24 µM (inactive); with BT-549 it was 2.84 µM (inactive); in the test with LOX IMVI it was 4.13 µM (inactive). The GI50 was 1.85 µM (inactive) in the test on KM12, 2.31 µM (inactive) in the test on HT-29, 2.38 µM (inactive) in the test on TK-10 and 2.58 µM (inactive) in the test on HOP-62.
Turning to `Clc1ccc(OCc2nnc3sc(-c4ccc(-c5ccc(Cl)cc5Cl)o4)nn23)cc1`, the GI50 with SK-OV-3 was > 100 µM (inactive); with OVCAR-5, > 100 µM (inactive); in the test on HCT-15, > 100 µM; in the test on U-251, 84.3 µM (inactive); with MDA-MB-435, > 100 µM (inactive); in the test with Malme-3M, > 100 µM (inactive). The GI50 was > 100 µM (inactive) in the test with UO-31; > 100 µM (inactive) in the test on SF-268; > 100 µM (inactive) in the test on K562; > 100 µM (inactive) in the test on ACHN; 16.4 µM (inactive) in the test with RXF 393; > 100 µM (inactive) in the test with BT-549. Moreover, the GI50 with LOX IMVI, with KM12, with HT-29, with OVCAR-4, with TK-10 and in the test with HOP-62 was > 100 µM (inactive) throughout.
Regarding `CCOC(=O)/C(C#N)=N\Nc1ccc(-n2c(C)nc3ccccc3c2=O)cc1`, the GI50 with SK-OV-3 was > 100 µM (inactive); in the test with MCF7, 84.3 µM (inactive); with OVCAR-5 it was > 100 µM (inactive); in the test on HCT-15, 62.1 µM; in the test with U-251, > 100 µM (inactive); with MDA-MB-435, 47.6 µM (inactive). Further, the GI50 in the test with UO-31 was 50.4 µM (inactive); in the test with SF-268 it was > 100 µM (inactive); with K562, 49.1 µM (inactive); in the test with ACHN, > 100 µM (inactive); with BT-549, 73.6 µM (inactive); in the test with LOX IMVI it was 66.2 µM (inactive). For the same compound, the GI50 was 30.2 µM (inactive) in the test on KM12, > 100 µM (inactive) with HT-29, > 100 µM (inactive) with TK-10 and > 100 µM (inactive) in the test on HOP-62.
As to `S=C1Cc2c([nH]c3ccccc23)-c2ccccc2N1`, the GI50 was 24.2 µM (inactive) in the test with SK-OV-3; > 100 µM (inactive) with MCF7; > 100 µM (inactive) with OVCAR-5; > 100 µM (inactive) in the test with MDA-MB-435; 69.2 µM (inactive) in the test on Malme-3M; 19.1 µM (inactive) in the test with UO-31. For the same compound, the GI50 with SF-268 is 34.4 µM (inactive); in the test on K562 it was 47.5 µM (inactive); in the test with ACHN, 23.6 µM (inactive); in the test on RXF 393, 18.3 µM (inactive); in the test with LOX IMVI it was 75.2 µM (inactive); in the test with KM12, > 100 µM (inactive). For the same compound, the GI50 was > 100 µM (inactive) with HT-29, > 100 µM (inactive) in the test with OVCAR-4, 21.5 µM (inactive) in the test with TK-10 and 25.9 µM (inactive) in the test with HOP-62.
